{
  "source": "ChEMBL document CHEMBL3045663",
  "about": "“Synthesis and Activity of Novel Acaricidal/Insecticidal 2, 4-Diphenyl-1, 3-oxazolines” (J Pestic Sci, 2002)",
  "key": {"[1]": {"system": "Chilo suppressalis", "assay": "Insecticidal activity against Chilo suppressalis (rice stem borer) larvae assessed as inhibition of incorporation of N-acetyl-[1-14C]glucosamine", "format": "functional, organism-based"}, "[2]": {"system": "Tetranychus urticae", "assay": "Acaricidal activity against Tetranychus urticae (two-spotted spider mite) in compound treated kidney bean leaf assessed as larvicidal activity", "format": "functional"}, "[3]": {"system": "Plutella xylostella", "assay": "Insecticidal activity against Plutella xylostella (diamondback moth) in compound treated radish leaf assessed as mortality at 500 ppm", "format": "functional"}, "[4]": {"system": "Nephotettix cincticeps", "assay": "Insecticidal activity against Nephotettix cincticeps (green rice leafhopper) in compound treated rice seedlings assessed as mortality at 500 ppm", "format": "functional"}, "[5]": {"system": "Myzus persicae", "assay": "Insecticidal activity against Myzus persicae (green peach aphid) in compound treated radish leaf assessed as mortality at 500 ppm", "format": "functional"}, "[6]": {"system": "Tetranychus urticae", "assay": "Acaricidal activity against Tetranychus urticae (two-spotted spider mite) in compound treated kidney bean leaf assessed as mortality of egg at 1000 ppm at 24 degC measured after 1 week", "format": "functional", "details": "168 h"}},
  "data": [
    {"molecule": "O=C(NC(=O)c1c(F)cccc1F)Nc1ccc(Cl)cc1", "note": "[DIFLUBENZURON]", "values": [
      {"measurement": "EC50", "setting": "[1]", "value": 20, "unit": "nM"}
    ]},
    {"molecule": "Ic1ccccc1C1=NC(c2ccccc2)CO1", "note": "(stereo unspecified)", "values": [
      {"measurement": "LC50", "setting": "[2]", "value": 1, "unit": "µg/mL"},
      {"measurement": "mortality at 500 ppm", "setting": "[3]", "value": 35, "unit": "%"},
      {"measurement": "mortality at 500 ppm", "setting": "[4]", "value": 0, "unit": "%"},
      {"measurement": "mortality at 500 ppm", "setting": "[5]", "value": 0, "unit": "%"},
      {"measurement": "mortality at 1000 ppm", "setting": "[6]", "value": 10, "unit": "%"}
    ]},
    {"molecule": "O=[N+]([O-])c1ccccc1C1=NC(c2ccccc2)CO1", "note": "(stereo unspecified)", "values": [
      {"measurement": "LC50", "setting": "[2]", "value": 100, "unit": "µg/mL"},
      {"measurement": "mortality at 500 ppm", "setting": "[3]", "value": 0, "unit": "%"},
      {"measurement": "mortality at 500 ppm", "setting": "[4]", "value": 0, "unit": "%"},
      {"measurement": "mortality at 500 ppm", "setting": "[5]", "value": 0, "unit": "%"},
      {"measurement": "mortality at 1000 ppm", "setting": "[6]", "value": 10, "unit": "%"}
    ]},
    {"molecule": "Fc1cccc(F)c1C1=NCC(c2ccccc2)O1", "note": "(stereo unspecified)", "values": [
      {"measurement": "LC50", "setting": "[2]", "value": 1, "unit": "µg/mL"},
      {"measurement": "mortality at 500 ppm", "setting": "[3]", "value": 35, "unit": "%"},
      {"measurement": "mortality at 500 ppm", "setting": "[4]", "value": 10, "unit": "%"},
      {"measurement": "mortality at 500 ppm", "setting": "[5]", "value": 85, "unit": "%"},
      {"measurement": "mortality at 1000 ppm", "setting": "[6]", "value": 0, "unit": "%"}
    ]},
    {"molecule": "Clc1cccc(C2=NC(c3ccccc3)CO2)c1Cl", "note": "(stereo unspecified)", "values": [
      {"measurement": "LC50", "setting": "[2]", "value": 10, "unit": "µg/mL"},
      {"measurement": "mortality at 500 ppm", "setting": "[3]", "value": 0, "unit": "%"},
      {"measurement": "mortality at 500 ppm", "setting": "[4]", "value": 0, "unit": "%"},
      {"measurement": "mortality at 500 ppm", "setting": "[5]", "value": 0, "unit": "%"},
      {"measurement": "mortality at 1000 ppm", "setting": "[6]", "value": 0, "unit": "%"}
    ]},
    {"molecule": "c1ccc(C2=NC(c3ccccc3)CO2)cc1", "note": "(stereo unspecified)", "values": [
      {"measurement": "LC50", "setting": "[2]", "value": 10, "unit": "µg/mL"},
      {"measurement": "mortality at 500 ppm", "setting": "[3]", "value": 60, "unit": "%"},
      {"measurement": "mortality at 500 ppm", "setting": "[4]", "value": 0, "unit": "%"},
      {"measurement": "mortality at 500 ppm", "setting": "[5]", "value": 0, "unit": "%"},
      {"measurement": "mortality at 1000 ppm", "setting": "[6]", "value": 0, "unit": "%"}
    ]},
    {"molecule": "Fc1cccc(F)c1C1=NC(c2ccccc2)CS1", "note": "(stereo unspecified)", "values": [
      {"measurement": "LC50", "setting": "[2]", "value": 10, "unit": "µg/mL"},
      {"measurement": "mortality at 500 ppm", "setting": "[3]", "value": 0, "unit": "%"},
      {"measurement": "mortality at 500 ppm", "setting": "[4]", "value": 0, "unit": "%"},
      {"measurement": "mortality at 500 ppm", "setting": "[5]", "value": 0, "unit": "%"},
      {"measurement": "mortality at 1000 ppm", "setting": "[6]", "value": 0, "unit": "%"}
    ]},
    {"molecule": "Clc1ccc(C2=NC(c3ccccc3)CO2)c(Cl)c1", "note": "(stereo unspecified)", "values": [
      {"measurement": "LC50", "setting": "[2]", "value": 10, "unit": "µg/mL"},
      {"measurement": "mortality at 500 ppm", "setting": "[3]", "value": 10, "unit": "%"},
      {"measurement": "mortality at 500 ppm", "setting": "[4]", "value": 0, "unit": "%"},
      {"measurement": "mortality at 500 ppm", "setting": "[5]", "value": 0, "unit": "%"},
      {"measurement": "mortality at 1000 ppm", "setting": "[6]", "value": 10, "unit": "%"}
    ]},
    {"molecule": "Fc1cccc(F)c1-c1ncc(-c2ccccc2)o1", "values": [
      {"measurement": "LC50", "setting": "[2]", "value": 100, "unit": "µg/mL"},
      {"measurement": "mortality at 500 ppm", "setting": "[3]", "value": 0, "unit": "%"},
      {"measurement": "mortality at 500 ppm", "setting": "[4]", "value": 0, "unit": "%"},
      {"measurement": "mortality at 500 ppm", "setting": "[5]", "value": 0, "unit": "%"},
      {"measurement": "mortality at 1000 ppm", "setting": "[6]", "value": 0, "unit": "%"}
    ]},
    {"molecule": "Fc1cccc(Cl)c1C1=NC(c2ccccc2)CO1", "note": "(stereo unspecified)", "values": [
      {"measurement": "LC50", "setting": "[2]", "value": 0.01, "unit": "µg/mL"},
      {"measurement": "mortality at 500 ppm", "setting": "[3]", "value": 0, "unit": "%"},
      {"measurement": "mortality at 500 ppm", "setting": "[4]", "value": 35, "unit": "%"},
      {"measurement": "mortality at 500 ppm", "setting": "[5]", "value": 10, "unit": "%"},
      {"measurement": "mortality at 1000 ppm", "setting": "[6]", "value": 0, "unit": "%"}
    ]},
    {"molecule": "CC1(c2ccccc2)COC(c2c(F)cccc2F)=N1", "note": "(stereo unspecified)", "values": [
      {"measurement": "LC50", "setting": "[2]", "value": 100, "unit": "µg/mL"},
      {"measurement": "mortality at 500 ppm", "setting": "[3]", "value": 0, "unit": "%"},
      {"measurement": "mortality at 500 ppm", "setting": "[4]", "value": 0, "unit": "%"},
      {"measurement": "mortality at 500 ppm", "setting": "[5]", "value": 0, "unit": "%"},
      {"measurement": "mortality at 1000 ppm", "setting": "[6]", "value": 0, "unit": "%"}
    ]}
  ]
}
